Species on record: Rattus norvegicus
Test: DrugMatrix - Regimen: Daily Repeat
Type: toxicity, organism-based, Sprague-Dawley
Design: regimen Daily Repeat, gender Male, age 6-8 weeks
Settings: in vivo, po, route oral GAVAGE, vehicle .5 % CMC; for ABSOLUTE BASOPHIL / ABSOLUTE EOSINOPHIL / ABSOLUTE LYMPHOCYTE / ABSOLUTE MONOCYTE / ABSOLUTE SEGMENTED NEUTROPHIL / BASOPHIL / EOSINOPHIL / ERYTHROCYTE COUNT / HEMATOCRIT / HEMOGLOBIN / LEUKOCYTE COUNT / LYMPHOCYTE / MEAN CORPUSCULAR HEMOGLOBIN / MEAN CORPUSCULAR HEMOGLOBIN CONCENTRATION / MEAN CORPUSCULAR VOLUME / MONOCYTE / NEUTROPHIL / NUCLEATED RED BLOOD CELLS / PLATELET COUNT: tissue Blood; for ALANINE AMINOTRANSFERASE / ALBUMIN / ALKALINE PHOSPHATASE / ASPARTATE AMINOTRANSFERASE / BLOOD UREA NITROGEN / CARBON DIOXIDE / CHLORIDE / CHOLESTEROL / CREATINE PHOSPHOKINASE / CREATININE / GLUCOSE / LACTATE DEHYDROGENASE / LIPASE / PHOSPHORUS / POTASSIUM / SODIUM / TOTAL BILIRUBIN / TOTAL PROTEIN / URIC ACID: tissue Plasma
[1] = 1 mg/kg, 120 h, dose level Low, time 5 day
[2] = 1300 mg/kg, 72 h, dose level High, time 3 day
[3] = 1300 mg/kg, 120 h, dose level High, time 5 day

CCOc1nc2cccc(C(=O)O)c2n1Cc1ccc(-c2ccccc2-c2nnn[nH]2)cc1
ABSOLUTE BASOPHIL [1]: 0 CELLS/uL
ABSOLUTE EOSINOPHIL [1]: 0 CELLS/uL
ABSOLUTE LYMPHOCYTE [1]: 10713.33 CELLS/uL
ABSOLUTE MONOCYTE [1]: 81.33 CELLS/uL
ABSOLUTE SEGMENTED NEUTROPHIL [1]: 1172 CELLS/uL
BASOPHIL [1]: 0%
EOSINOPHIL [1]: 0%
ERYTHROCYTE COUNT [1]: 5.35 x10E6/uL
HEMATOCRIT [1]: 34.57%
HEMOGLOBIN [1]: 13.63 G/DL
LEUKOCYTE COUNT [1]: 11.97 x10E3/uL
LYMPHOCYTE [1]: 89.67%
MEAN CORPUSCULAR HEMOGLOBIN [1]: 25.5 pg
MEAN CORPUSCULAR HEMOGLOBIN CONCENTRATION [1]: 39.43 G/DL
MEAN CORPUSCULAR VOLUME [1]: 64.67 fL
MONOCYTE [1]: 0.67%
NEUTROPHIL [1]: 9.67%
NUCLEATED RED BLOOD CELLS [1]: 0 /100WBC
PLATELET COUNT [1]: 1267.33 x10E3/uL
ALANINE AMINOTRANSFERASE [1]: 54 u/L
ALBUMIN [1]: 4.1 G/DL
ALKALINE PHOSPHATASE [1]: 389.33 u/L
ASPARTATE AMINOTRANSFERASE [1]: 76.67 u/L
BLOOD UREA NITROGEN [1]: 18.33 mg/dL
CARBON DIOXIDE [1]: 27 mmol/L
CHLORIDE [1]: 104.33 MEQ/L
CHOLESTEROL [1]: 70.33 mg/dL
CREATINE PHOSPHOKINASE [1]: 187.67 u/L
CREATININE [1]: 0.19 mg/dL
GLUCOSE [1]: 161.33 mg/dL
LACTATE DEHYDROGENASE [1]: 120.67 u/L
LIPASE [1]: 10.67 u/L
PHOSPHORUS [1]: 12.2 mg/dL
POTASSIUM [1]: 5.83 MEQ/L
SODIUM [1]: 144.5 MEQ/L
TOTAL BILIRUBIN [1]: 0.2 mg/dL
TOTAL PROTEIN [1]: 5.97 G/DL
URIC ACID [1]: 1.6 mg/dL
ABSOLUTE BASOPHIL [2]: 0 CELLS/uL
ABSOLUTE EOSINOPHIL [2]: 27.67 CELLS/uL
ABSOLUTE LYMPHOCYTE [2]: 7595.67 CELLS/uL
ABSOLUTE MONOCYTE [2]: 24.33 CELLS/uL
ABSOLUTE SEGMENTED NEUTROPHIL [2]: 519 CELLS/uL
BASOPHIL [2]: 0%
EOSINOPHIL [2]: 0.33%
ERYTHROCYTE COUNT [2]: 5.08 x10E6/uL
HEMATOCRIT [2]: 32.2%
HEMOGLOBIN [2]: 13.13 G/DL
LEUKOCYTE COUNT [2]: 8.17 x10E3/uL
LYMPHOCYTE [2]: 93%
MEAN CORPUSCULAR HEMOGLOBIN [2]: 25.87 pg
MEAN CORPUSCULAR HEMOGLOBIN CONCENTRATION [2]: 40.8 G/DL
MEAN CORPUSCULAR VOLUME [2]: 63.43 fL
MONOCYTE [2]: 0.33%
NEUTROPHIL [2]: 6.33%
NUCLEATED RED BLOOD CELLS [2]: 0 /100WBC
PLATELET COUNT [2]: 1033.67 x10E3/uL
ALANINE AMINOTRANSFERASE [2]: 54 u/L
ALBUMIN [2]: 4.33 G/DL
ALKALINE PHOSPHATASE [2]: 351.67 u/L
ASPARTATE AMINOTRANSFERASE [2]: 93 u/L
BLOOD UREA NITROGEN [2]: 27.33 mg/dL
CARBON DIOXIDE [2]: 32 mmol/L
CHLORIDE [2]: 102 MEQ/L
CHOLESTEROL [2]: 73 mg/dL
CREATINE PHOSPHOKINASE [2]: 813.67 u/L
CREATININE [2]: 0.48 mg/dL
GLUCOSE [2]: 143 mg/dL
LACTATE DEHYDROGENASE [2]: 189.33 u/L
LIPASE [2]: 10.33 u/L
PHOSPHORUS [2]: 12.17 mg/dL
POTASSIUM [2]: 7.02 MEQ/L
SODIUM [2]: 143.6 MEQ/L
TOTAL BILIRUBIN [2]: 0.23 mg/dL
TOTAL PROTEIN [2]: 5.93 G/DL
URIC ACID [2]: 0.93 mg/dL
ABSOLUTE BASOPHIL [3]: 0 CELLS/uL
ABSOLUTE EOSINOPHIL [3]: 140.67 CELLS/uL
ABSOLUTE LYMPHOCYTE [3]: 14776.67 CELLS/uL
ABSOLUTE MONOCYTE [3]: 166.33 CELLS/uL
ABSOLUTE SEGMENTED NEUTROPHIL [3]: 1516.33 CELLS/uL
BASOPHIL [3]: 0%
EOSINOPHIL [3]: 0.67%
ERYTHROCYTE COUNT [3]: 5.54 x10E6/uL
HEMATOCRIT [3]: 34.57%
HEMOGLOBIN [3]: 13.97 G/DL
LEUKOCYTE COUNT [3]: 16.6 x10E3/uL
LYMPHOCYTE [3]: 89.33%
MEAN CORPUSCULAR HEMOGLOBIN [3]: 25.23 pg
MEAN CORPUSCULAR HEMOGLOBIN CONCENTRATION [3]: 40.43 G/DL
MEAN CORPUSCULAR VOLUME [3]: 62.43 fL
MONOCYTE [3]: 1%
NEUTROPHIL [3]: 9%
NUCLEATED RED BLOOD CELLS [3]: 0 /100WBC
PLATELET COUNT [3]: 1315 x10E3/uL
ALANINE AMINOTRANSFERASE [3]: 42.33 u/L
ALBUMIN [3]: 4.33 G/DL
ALKALINE PHOSPHATASE [3]: 320.67 u/L
ASPARTATE AMINOTRANSFERASE [3]: 108 u/L
BLOOD UREA NITROGEN [3]: 32.33 mg/dL
CARBON DIOXIDE [3]: 24.67 mmol/L
CHLORIDE [3]: 105 MEQ/L
CHOLESTEROL [3]: 61.67 mg/dL
CREATINE PHOSPHOKINASE [3]: 994.33 u/L
CREATININE [3]: 0.19 mg/dL
GLUCOSE [3]: 134 mg/dL
LACTATE DEHYDROGENASE [3]: 1053.67 u/L
LIPASE [3]: 10 u/L
PHOSPHORUS [3]: 11.2 mg/dL
POTASSIUM [3]: 6.2 MEQ/L
SODIUM [3]: 143.9 MEQ/L
TOTAL BILIRUBIN [3]: 0.2 mg/dL
TOTAL PROTEIN [3]: 6.2 G/DL
URIC ACID [3]: 1.13 mg/dL

Source: ChEMBL document CHEMBL3885881, “DrugMatrix”
